Data on eight molecules can be found in patent US7348357B2, “Arylamides” (Bayer HealthCare AG, priority 2002, dated 2008).

Each structure is given as a SMILES string. Values after ≈ are worked out from the molar mass of the structure shown.

In one assay the test system is bacteria. The conditions noted are these: described in the literature (J. Am. Chem. Soc. 1987, J. Org. Chem. 1994, J. Antibiot. 1997); cited from earlier work.
Assay [1] deals with Staphylococcus aureus 133. Description: Minimum inhibitory concentration (MIC), liquid dilution test. It is filed as cell-based. The following applies: Isosensitest medium, 10^5 organisms per ml, 37° C., 18-24 hours, lowest concentration with no visible bacterial growth. Here is the method: (§1) Determination of the Minimum Inhibitory Concentration (MIC): The MIC is determined in a liquid dilution test. Overnight cultures of the test organisms are diluted to a cell count of 10^5 organisms per ml in Isosensitest medium (Difco, Irvine, USA) and are incubated with dilutions of the test substances (1:2 dilution stages). Exceptions are the tests with S. pneumoniae […], which are conducted in BHI broth (Difco) plus 20% bovine serum, and with H. influenzae, which are conducted in BHI broth (Difco) plus 20% bovine serum, 10 μg/ml hemin and 1% Isovitale (Becton Dickinson, New Jersey, USA). The cultures are incubated at 37° C. for 18-24 hours; S. pneumoniae and H. influenzae in the presence of 8-10% CO2. The lowest concentration of each substance at which there is no longer any visible bacterial growth is defined as the MIC. The MICs in μmol/l of some compounds of the invention against a series of test organisms are listed by way of example in the table below.

In assay [2] the test system is Haemophilus influenzae Spain 7. Described as above. The following applies: BHI broth plus 20% bovine serum, 10 μg/ml hemin and 1% Isovitale, 37° C., 18-24 hours, 8-10% CO2, lowest concentration with no visible bacterial growth. Type of assay: cell-based. Here is the method: as §1

`C/C=C/C=C/C(=O)N[C@@H](CC(=O)N[C@H](C(=O)[C@@H]1C(=O)NC(=O)[C@H]1C)C(C)C)c1ccccc1` [moiramide B]: the antibacterial activity entry in the assay with bacteria was “having antibacterial activity”.
The molecule `C[C@@H]1C(=O)NC(=O)[C@H]1C(=O)C(NC(=O)C[C@H](NC(=O)c1ccccn1)c1ccccc1)C1CCCC1` (stereo partly drawn) [Example 9, N-[(1S)-3-({1-Cyclopentyl-2-[(3R,4S)-4-methyl-2,5-dioxo-3-pyrrolidinyl]-2-oxoethyl}amino)-3-oxo-1-phenylpropyl]-2-pyridinecarboxamide] registered an MIC in assay [1] of 7.81 µM (≈ 3.83 µg/mL). In assay [2], the “MIC Haemophilus influenzae Spain 7” value worked out at 62.5 µM.
For `CC(C)[C@H](NC(=O)C[C@H](NC(=O)c1cc(-c2ccccc2)ccn1)c1ccccc1)C(=O)[C@@H]1C(=O)NC(=O)[C@H]1C` [Example 6, N-{(1S)-3-[((1S)-2-Methyl-1-{[(3R,4S)4-methyl-2,5-dioxo-3-pyrrolidinyl]-carbonyl}propyl)amino]-3-oxo-1-phenylpropyl}-4-phenyl-2-pyridinecarboxamide], in that order: 7.81 µM (≈ 4.22 µg/mL) and 15.63 µM.
For `CC(C)[C@H](NC(=O)C[C@H](NC(=O)c1cccc(F)n1)c1ccccc1)C(=O)[C@@H]1C(=O)NC(=O)[C@H]1C` [Example 2, 6-Fluoro-N-{(1S)-3-[((1S)-2-methyl-1-{[(3R,4S)-4-methyl-2,5-dioxo-3-pyrrolidinyl]-carbonyl}propyl)amino]-3-oxo-1-phenylpropyl}-2-pyridinecarboxamide], in that order: 15.6 µM (≈ 7.54 µg/mL) and 7.81 µM.
On the same counts, the results for `COc1ccc(CC(=O)N[C@@H](CC(=O)N[C@H](C(=O)[C@@H]2C(=O)NC(=O)[C@H]2C)C(C)C)c2ccccc2)c(Cl)c1Cl` [Example 109] are 0.98 µM (≈ 0.565 µg/mL) and 62.5 µM.
As to `C[C@@H]1C(=O)NC(=O)[C@H]1C(=O)[C@@H](NC(=O)C[C@H](NC(=O)c1cc2cc(F)ccc2[nH]1)c1ccccc1)C1CCCC1` [Example 48, N-[(1S)-3-({(1S)-1-Cyclopentyl-2-[(3R,4S)4-methyl-2,5-dioxo-3-pyrrolidinyl]-2-oxoethyl}amino)-3-oxo-1-phenylpropyl]-5-fluoro-1 H-indole-2-carboxamide], in assay [1], the MIC was determined as 0.98 µM (≈ 0.536 µg/mL). For the same molecule, in assay [2], the “MIC Haemophilus influenzae Spain 7” value came to 15.63 µM.
`C/C=C/C=C/C=C/C(=O)N[C@@H](CC(=O)N[C@H](C(=O)[C@@]1(O)C(=O)NC(=O)[C@H]1C)C(C)C)c1ccccc1` [moiramide C]: the antibacterial activity entry in the assay with bacteria was “inactive”.
As for `C/C=C/C=C/C=C/C(=O)N[C@@H](CC(=O)N[C@H](C(=O)[C@@H]1C(=O)NC(=O)[C@H]1C)C(C)C)c1ccccc1` [andrimid], in the assay on bacteria, the antibacterial activity result is recorded as “having antibacterial activity”.
